Reference: ChEMBL document CHEMBL1821658, “Synthesis, antimicrobial evaluation and QSAR analysis of novel nalidixic acid based 1,2,4-triazole derivatives” (2011)
≈ marks a conversion by molar mass, not a printed value.

Legend:
Assay type in all cases: functional
Aspergillus niger = assay: Antifungal activity against Aspergillus niger by food poison technique; settings: read-out: ED50 (the source's name)
Escherichia coli = assay: Antibacterial activity against Escherichia coli ATCC 8739 after 24 hrs by broth micro dilution assay; settings: ATCC 8739, 24 h
Bacillus subtilis = assay: Antibacterial activity against Bacillus subtilis ATCC 12711 after 24 hrs by broth micro dilution assay; settings: ATCC 12711, 24 h
Klebsiella pneumoniae = assay: Antibacterial activity against Klebsiella pneumoniae ATCC 31488 after 24 hrs by broth micro dilution assay; settings: ATCC 31488, 24 h
Fusarium oxysporum = assay: Antifungal activity against Fusarium oxysporum by food poison technique; settings: read-out: ED50 (the source's name)
Pseudomonas aeruginosa = assay: Antibacterial activity against Pseudomonas aeruginosa ATCC 9027 after 24 hrs by broth micro dilution assay; settings: ATCC 9027, 24 h
Staphylococcus aureus = assay: Antibacterial activity against Staphylococcus aureus ATCC 2937 after 24 hrs by broth micro dilution assay; settings: ATCC 2937, 24 h

Structure (SMILES)	EC50 (Aspergillus niger)	MIC90 (Escherichia coli)	MIC90 (Bacillus subtilis)	MIC90 (Klebsiella pneumoniae)	EC50 (Fusarium oxysporum)	MIC90 (Pseudomonas aeruginosa)	MIC90 (Staphylococcus aureus)
CCn1cc(-c2nnc(S)n2/N=C/c2ccc(N(C)C)cc2)c(=O)c2ccc(C)nc21	101 µg/mL (≈ 233 µM)	63 µg/mL (≈ 145 µM)	16 µg/mL (≈ 36.9 µM)	63 µg/mL (≈ 145 µM)	104 µg/mL (≈ 239 µM)	16 µg/mL (≈ 36.9 µM)	125 µg/mL (≈ 288 µM)
CCn1cc(-c2nnc(S)n2/N=C/c2ccc(Br)cc2)c(=O)c2ccc(C)nc21	144 µg/mL (≈ 306 µM)	250 µg/mL (≈ 533 µM)	250 µg/mL (≈ 533 µM)	250 µg/mL (≈ 533 µM)	107 µg/mL (≈ 227 µM)	62 µg/mL (≈ 132 µM)	125 µg/mL (≈ 266 µM)
CCn1cc(-c2nnc3sc(-c4cccc([N+](=O)[O-])c4)nn23)c(=O)c2ccc(C)nc21	71 µg/mL (≈ 164 µM)	125 µg/mL (≈ 288 µM)	125 µg/mL (≈ 288 µM)	125 µg/mL (≈ 288 µM)	148 µg/mL (≈ 342 µM)	63 µg/mL (≈ 145 µM)	125 µg/mL (≈ 288 µM)
CCc1ccc(/C=N/n2c(S)nnc2-c2cn(CC)c3nc(C)ccc3c2=O)cc1	229 µg/mL (≈ 547 µM)	250 µg/mL (≈ 597 µM)	63 µg/mL (≈ 151 µM)	63 µg/mL (≈ 151 µM)	191 µg/mL (≈ 456 µM)	63 µg/mL (≈ 151 µM)	63 µg/mL (≈ 151 µM)
CCn1cc(-c2nnc(S)n2/N=C/c2ccc(O)cc2)c(=O)c2ccc(C)nc21	549 µg/mL (≈ 1350 µM)	125 µg/mL (≈ 308 µM)	125 µg/mL (≈ 308 µM)	125 µg/mL (≈ 308 µM)	203 µg/mL (≈ 500 µM)	63 µg/mL (≈ 155 µM)	125 µg/mL (≈ 308 µM)
CCn1cc(-c2nnc3n2N=C(c2ccccc2)CS3)c(=O)c2ccc(C)nc21	148 µg/mL (≈ 369 µM)	125 µg/mL (≈ 311 µM)	125 µg/mL (≈ 311 µM)	63 µg/mL (≈ 157 µM)	144 µg/mL (≈ 359 µM)	125 µg/mL (≈ 311 µM)	63 µg/mL (≈ 157 µM)
CCn1cc(-c2nnc(S)n2/N=C/c2ccc(Cl)cc2Cl)c(=O)c2ccc(C)nc21	502 µg/mL (≈ 1090 µM)	250 µg/mL (≈ 544 µM)	125 µg/mL (≈ 272 µM)	250 µg/mL (≈ 544 µM)	103 µg/mL (≈ 224 µM)	63 µg/mL (≈ 137 µM)	125 µg/mL (≈ 272 µM)
CCn1cc(-c2nnc3sc(-c4ccccc4Cl)nn23)c(=O)c2ccc(C)nc21	75.5 µg/mL (≈ 178 µM)	16 µg/mL (≈ 37.8 µM)	16 µg/mL (≈ 37.8 µM)	16 µg/mL (≈ 37.8 µM)	86.6 µg/mL (≈ 205 µM)	16 µg/mL (≈ 37.8 µM)	16 µg/mL (≈ 37.8 µM)
CCn1cc(-c2nnc(S)n2/N=C/c2ccc(C(C)C)cc2)c(=O)c2ccc(C)nc21	113 µg/mL (≈ 262 µM)	250 µg/mL (≈ 578 µM)	16 µg/mL (≈ 37 µM)	125 µg/mL (≈ 289 µM)	106 µg/mL (≈ 246 µM)	16 µg/mL (≈ 37 µM)	63 µg/mL (≈ 146 µM)
CCn1cc(-c2nnc(S)n2/N=C/c2ccccc2)c(=O)c2ccc(C)nc21	77.7 µg/mL (≈ 199 µM)	16 µg/mL (≈ 41 µM)	250 µg/mL (≈ 640 µM)	16 µg/mL (≈ 41 µM)	78.2 µg/mL (≈ 200 µM)	16 µg/mL (≈ 41 µM)	250 µg/mL (≈ 640 µM)
CCn1cc(-c2nnc3sc(-c4ccc(Cl)cc4)nn23)c(=O)c2ccc(C)nc21	514 µg/mL (≈ 1210 µM)	63 µg/mL (≈ 149 µM)	63 µg/mL (≈ 149 µM)	125 µg/mL (≈ 296 µM)	121 µg/mL (≈ 287 µM)	125 µg/mL (≈ 296 µM)	63 µg/mL (≈ 149 µM)
CCn1cc(-c2nnc(S)n2/N=C/c2ccc(C)cc2)c(=O)c2ccc(C)nc21	76.6 µg/mL (≈ 189 µM)	125 µg/mL (≈ 309 µM)	125 µg/mL (≈ 309 µM)	63 µg/mL (≈ 156 µM)	205 µg/mL (≈ 507 µM)	63 µg/mL (≈ 156 µM)	63 µg/mL (≈ 156 µM)
CCn1cc(-c2nnc3sc(S)nn23)c(=O)c2ccc(C)nc21	92.7 µg/mL (≈ 269 µM)	63 µg/mL (≈ 183 µM)	125 µg/mL (≈ 363 µM)	63 µg/mL (≈ 183 µM)	267 µg/mL (≈ 775 µM)	31 µg/mL (≈ 90 µM)	250 µg/mL (≈ 726 µM)
CCn1cc(-c2nnc(S)n2/N=C/c2ccc(F)cc2)c(=O)c2ccc(C)nc21	134 µg/mL (≈ 327 µM)	250 µg/mL (≈ 612 µM)	63 µg/mL (≈ 154 µM)	250 µg/mL (≈ 612 µM)	163 µg/mL (≈ 400 µM)	16 µg/mL (≈ 39.2 µM)	125 µg/mL (≈ 306 µM)
CCn1cc(-c2nnc(S)n2NC(C)=O)c(=O)c2ccc(C)nc21	111 µg/mL (≈ 322 µM)	63 µg/mL (≈ 183 µM)	63 µg/mL (≈ 183 µM)	31 µg/mL (≈ 90 µM)	166 µg/mL (≈ 481 µM)	250 µg/mL (≈ 726 µM)	63 µg/mL (≈ 183 µM)
CCn1cc(-c2nnc3sc(=O)c(=O)[nH]n23)c(=O)c2ccc(C)nc21	348 µg/mL (≈ 975 µM)	125 µg/mL (≈ 351 µM)	125 µg/mL (≈ 351 µM)	63 µg/mL (≈ 177 µM)	164 µg/mL (≈ 461 µM)	125 µg/mL (≈ 351 µM)	250 µg/mL (≈ 702 µM)
CCn1cc(-c2nnc(S)n2/N=C/c2cccc(Br)c2)c(=O)c2ccc(C)nc21	111 µg/mL (≈ 237 µM)	125 µg/mL (≈ 266 µM)	16 µg/mL (≈ 34.1 µM)	31 µg/mL (≈ 66 µM)	74.1 µg/mL (≈ 158 µM)	16 µg/mL (≈ 34.1 µM)	125 µg/mL (≈ 266 µM)
CCn1cc(-c2nnc(S)n2/N=C/c2ccc(C(F)(F)F)cc2)c(=O)c2ccc(C)nc21	299 µg/mL (≈ 652 µM)	250 µg/mL (≈ 545 µM)	63 µg/mL (≈ 137 µM)	125 µg/mL (≈ 273 µM)	101 µg/mL (≈ 220 µM)	63 µg/mL (≈ 137 µM)	250 µg/mL (≈ 545 µM)
